The nature of data set [1]: Surface charge (zeta potential) by particle size surface charge analyzer. In kind it is physicochemical. The conditions noted are these: aqueous phase. The protocol: The surface charge of the nanoparticle of Example 2 was measured using a particle size surface charge analyzer (Zetasizer Nano-ZS, […]). In addition, the surface charge of a pure indocyanine green solution was measured using the particle size surface charge analyzer.

Data set [2] is described as follows: Optical stability under continuous 785 nm laser irradiation. In kind it is physicochemical. The conditions noted are these: 30 minutes. On the procedure:
A slide glass on which the nanoparticle of Example 4 was spin coated thereon was prepared. A region of the slide glass was selected, and was continuously irradiated by 785 nm laser for 30 minutes.
FIGS. 14A to 14D are a single particle fluorescence images showing the optical stability of an up-conversion nanoparticle coated with indocyanine green.

`CC1(C)C(/C=C/C=C/C=C/C=C2\N(CCCCS(=O)(=O)O)c3ccc4ccccc4c3C2(C)C)=[N+](CCCCS(=O)(=O)[O-])c2ccc3ccccc3c21` [indocyanine green] gave a surface charge in data set [1] of −25.1 mV. Moreover, the “fluorescence signal of indocyanine green after laser irradiation (optical stability)” value in data set [2] is reported as “relatively much reduced or disappeared after 30 minutes”.
